What was measured:
Format in all cases: cell-based
[1] = system: P. falciparum D6 (CQS) strain; experiment: in vitro antimalarial activity, chloroquine-sensitive D6 strain; conditions: Plasmodium falciparum, D6, read-out: IC50 against D6
[2] = system: P. falciparum Dd2 (CQR) strain; experiment: in vitro antimalarial activity, chloroquine-resistant Dd2 strain; conditions: Plasmodium falciparum, DD2, read-out: IC50 against Dd2
[3] = system: P. falciparum 7G8 (CQR) strain; experiment: in vitro antimalarial activity, chloroquine-resistant 7G8 strain; conditions: Plasmodium falciparum, 7G8, read-out: IC50 against 7G8

`CCN(CC)CCCC(C)Nc1ccnc2cc(Cl)ccc12` (stereo not drawn) [chloroquine] gave an IC50 [1] of 14.3 nM, an IC50 [2] of 110 nM and an IC50 [3] of 131 nM.
`CO[C@@H]1CC(c2ccc[nH]2)=N[C@]12O[C@@H](C)C[C@@H]1CCCCCCCc3ccc([nH]3)[C@H]12` [compound 5, marineosin A] gave an IC50 [1] of 138 nM, an IC50 [2] of 127 nM and an IC50 [3] of 199 nM.
